Data as given in patent US8669249B2, “Poly (ADP-ribose) polymerase (PARP) inhibitors” (Takeda Pharmaceutical Company Limited, priority 2009, dated 2014).

Experiments:
Jurkat cell line = assay: PARP cellular chemopotentiation assay (MTS, with/without TMZ); assay type: cell-based; conditions: Chemopotentiation factor: ratio of EC50 values of Jurkat cells co-treated without and with 100 μM TMZ; 96 hours
Method in brief: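 Jurkat cells, 10,000/well, pre-cultured 24 h, then treated 96 h with serial compound dilutions (0.5% DMSO) with or without 100 μM TMZ. Viability by MTS conversion (OD490), normalized to DMSO controls; EC50 from curve fits, PF50 = EC50 without TMZ / EC50 with TMZ.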

[1] = target: T1, catalytic domain of Human PARP (Homo sapiens, UniProt P09874); assay: Biacore surface plasmon resonance affinity assay; assay type: binding; conditions: pKD=-log10 KD, KD in mol/L; Biacore T100, 25° C.; read-out: pKD (converted)
T1 construct: The catalytic domain of Human PARP was cloned and prepared; made in house
T1 sequence (P09874 788-1014 limits assumed): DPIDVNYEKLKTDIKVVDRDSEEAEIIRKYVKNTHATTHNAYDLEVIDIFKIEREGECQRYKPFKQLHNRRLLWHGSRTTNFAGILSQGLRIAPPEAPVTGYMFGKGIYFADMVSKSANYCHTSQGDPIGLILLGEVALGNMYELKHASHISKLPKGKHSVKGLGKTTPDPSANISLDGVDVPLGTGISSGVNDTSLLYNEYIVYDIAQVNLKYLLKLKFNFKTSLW
Method in brief: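 Binding at 25° C on Biacore T100: 1 min compound association then 5 min dissociation (50 μL/min) over immobilized PARP catalytic domain, buffer HBS-P plus 1% DMSO, 0.5 mM TCEP, 5 mM MgCl2, 2-fold dilution series. KD derived as koff/kon from fitted association and dissociation phases.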

PARP = target: T2, PARP (Homo sapiens, UniProt P09874); assay: PARP ELISA (ELISA-based colorimetric PARP/Apoptosis Assay kit, Trevigen); assay type: biochemical; conditions: pIC50=-log10 IC50, IC50 in mol/L; inhibition of PARP catalytic activity
T2 construct: purchased Trevigen 4684-096-K HT (kit); 4684-096-01 (PARP enzyme)
T2 sequence (P09874 whole entry): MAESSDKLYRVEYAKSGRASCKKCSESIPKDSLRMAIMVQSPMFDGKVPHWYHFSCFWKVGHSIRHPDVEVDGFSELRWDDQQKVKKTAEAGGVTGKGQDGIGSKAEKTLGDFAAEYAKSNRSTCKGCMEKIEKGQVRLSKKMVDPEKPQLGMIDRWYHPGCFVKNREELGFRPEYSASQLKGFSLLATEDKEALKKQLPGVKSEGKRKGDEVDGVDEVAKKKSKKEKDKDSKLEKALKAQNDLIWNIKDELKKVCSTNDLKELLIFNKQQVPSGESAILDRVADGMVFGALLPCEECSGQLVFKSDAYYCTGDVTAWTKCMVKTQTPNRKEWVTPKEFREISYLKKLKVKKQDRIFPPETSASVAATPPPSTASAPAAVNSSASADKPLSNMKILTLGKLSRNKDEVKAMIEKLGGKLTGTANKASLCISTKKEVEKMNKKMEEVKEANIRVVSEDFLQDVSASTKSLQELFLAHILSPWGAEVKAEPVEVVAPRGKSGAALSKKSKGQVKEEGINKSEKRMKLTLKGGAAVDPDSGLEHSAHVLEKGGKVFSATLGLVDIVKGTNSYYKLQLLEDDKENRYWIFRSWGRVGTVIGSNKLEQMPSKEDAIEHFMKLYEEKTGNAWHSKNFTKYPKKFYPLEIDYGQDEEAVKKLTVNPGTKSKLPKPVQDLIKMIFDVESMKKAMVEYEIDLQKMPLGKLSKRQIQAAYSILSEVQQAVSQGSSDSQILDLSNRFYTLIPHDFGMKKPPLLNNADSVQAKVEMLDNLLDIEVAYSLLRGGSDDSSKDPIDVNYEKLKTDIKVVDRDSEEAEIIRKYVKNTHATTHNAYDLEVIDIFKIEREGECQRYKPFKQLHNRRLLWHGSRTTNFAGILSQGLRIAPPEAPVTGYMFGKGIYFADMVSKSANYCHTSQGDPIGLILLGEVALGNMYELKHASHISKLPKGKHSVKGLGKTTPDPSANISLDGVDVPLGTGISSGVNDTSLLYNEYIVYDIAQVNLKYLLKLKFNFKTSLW
Method in brief: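 Quenched after 10 min catalysis by aspiration and four PBS/0.1% Triton X-100 washes. Poly(ADP-ribose) detected with mouse anti-PAR monoclonal antibody, goat anti-mouse IgG-HRP and HRP substrate; colorimetric signal proportional to PARP catalytic activity.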

SMILES | PF50 (Jurkat cell line) | Kd [1] [nM] | IC50 (PARP) [nM]
CCNC(=O)c1ccc(N2CCN(Cc3cc(F)c4c(c3)NC(=O)C(C)O4)CC2)cc1 (stereo not drawn) [Compound 272, N-Ethyl-4-(4-((8-fluoro-2-methyl-3-oxo-3,4-dihydro-2H-benzo[b][1,4]oxazin-6-yl)methyl)piperazin-1-yl)benzamide] | 1.0-1.9 | < 31.6 | 39.8 to 100
CC1Oc2c(F)cc(CN3CCN(c4ccc(C(=O)NC5CC5)cc4)CC3)cc2NC1=O (stereo not drawn) [Compound 273, N-Cyclopropyl-4-(4-((8-fluoro-2-methyl-3-oxo-3,4-dihydro-2H-benzo[b][1,4]oxazin-6-yl)methyl)piperazin-1-yl)benzamide] | ≦0.9 | < 31.6 | ≤ 31.6
CC1Oc2ccc(CN3CCN(c4ccc(C#N)cc4)CC3)cc2NC1=O (stereo not drawn) [Compound 219, 4-(4-((2-methyl-3-oxo-3,4-dihydro-2H-benzo[b][1,4]oxazin-6-yl)methyl)piperazin-1-yl)benzonitrile] | ≦0.9 | ≤ 10 | ≤ 31.6
CC(C)NC(=O)c1ccc(N2CCN(Cc3ccc4c(c3)NC(=O)C(C)O4)CC2)cc1 (stereo not drawn) [Compound 225, N-Isopropyl-4-(4-((2-methyl-3-oxo-3,4-dihydro-2H-benzo[b][1,4]oxazin-6-yl)methyl)piperazin-1-yl)benzamide] | ≦0.9 | ≤ 10 | ≤ 31.6
CCOC(=O)c1ccc(N2CCN(Cc3cc(C)c4c(c3)NC(=O)C(C)O4)CC2)cc1 (stereo not drawn) [Compound 255, Ethyl 4-(4-((2,8-dimethyl-3-oxo-3,4-dihydro-2H-benzo[b][1,4]oxazin-6-yl)methyl)piperazin-1-yl)benzoate] | ≦0.9 | 12.6 to 100 | 39.8 to 100
CNC(=O)c1ccc(N2CCN(Cc3ccc4c(c3)NC(=O)C(C)O4)CC2)nc1 (stereo not drawn) [Compound 235, N-Methyl-6-(4-((2-methyl-3-oxo-3,4-dihydro-2H-benzo[b][1,4]oxazin-6-yl)methyl)piperazin-1-yl)nicotinamide] | 2.0-9.9 | ≤ 10 | ≤ 31.6
CCNC(=O)c1ccc(N2CCN(Cc3ccc4c(c3)NC(=O)C(C)O4)CC2)cc1 (stereo not drawn) [Compound 224, N-Ethyl-4-(4-((2-methyl-3-oxo-3,4-dihydro-2H-benzo[b][1,4]oxazin-6-yl)methyl)piperazin-1-yl)benzamide] | 2.0-9.9 | ≤ 10 | ≤ 31.6
CCOC(=O)c1ccc(N2CCN(Cc3ccc4c(c3)NC(=O)C(C)O4)CC2)nc1 (stereo not drawn) [Compound 237, Ethyl 6-(4-((2-methyl-3-oxo-3,4-dihydro-2H-benzo[b][1,4]oxazin-6-yl)methyl)piperazin-1-yl)nicotinate] | ≦0.9 | ≤ 10 | ≥ 126
Cc1cc(CN2CCN(c3ccc(C#N)cc3)CC2)cc2c1OC(C)C(=O)N2 (stereo not drawn) [Compound 253, 4-(4-((2,8-Dimethyl-3-oxo-3,4-dihydro-2H-benzo[b][1,4]oxazin-6-yl)methyl)piperazin-1-yl)benzonitrile] | 2.0-9.9 | ≤ 10 | ≤ 31.6
COc1cc(CN2CCN(c3ccc(C(=O)NC4CC4)cc3)CC2)cc2c1OC(C)C(=O)N2 (stereo not drawn) [Compound 163, N-Cyclopropyl-4-(4-((8-methoxy-2-methyl-3-oxo-3,4-dihydro-2H-benzo[b][1,4]oxazin-6-yl)methyl)piperazin-1-yl)benzamide] | ≧10.0 | < 31.6 | ≤ 31.6
CC1Oc2ccc(CN3CCN(c4ccc(C#N)cn4)CC3)cc2NC1=O (stereo not drawn) [Compound 231, 6-(4-((2-Methyl-3-oxo-3,4-dihydro-2H-benzo[b][1,4]oxazin-6-yl)methyl)piperazin-1-yl)nicotinonitrile] | 1.0-1.9 | ≤ 10 | ≤ 31.6
COC(=O)c1ccc(C2CCN(Cc3ccc4c(c3)NC(=O)C(C)O4)CC2)cc1 (stereo not drawn) [Compound 214, Methyl 4-(1-((2-methyl-3-oxo-3,4-dihydro-2H-benzo[b][1,4]oxazin-6-yl)methyl)piperidin-4-yl)benzoate] | ≦0.9 | ≤ 10 | 39.8 to 100
